Measured values taken from patent EP0645397B1, “Glutathione analogs and paralog panels comprising glutathione mimics” (TERRAPIN TECHNOLOGIES, INC., priority 1993, dated 1998).

Tests used:
[1] = tested on: rat cytosolic GST isoenzymes; experiment: Isoenzyme composition of sorbent eluates by SDS/PAGE and reverse-phase HPLC; assay type: binding
Procedure: Fractions eluted from the sorbents listed in Table 3 were analyzed by SDS/PAGE followed by silver staining. S-L-GSH and HxGSH sorbents bound proteins which corresponded to the previously observed electrophoretic band pattern of rat liver GST subunits. […] As the π-class GST 7-7 is found at low levels in rat liver cytosol, other rat tissues known to express higher levels of this isoenzyme also were tested.
Independent confirmation of this conclusion, at higher resolution, was provided by reverse-phase HPLC analyses of the GST isoenzymes in the eluates from different sorbents. […] Subunits 3, 4 and 6 are µ-class isoenzymes, subunits 1a, 1b, 2 and 8 are α-class isoenzymes, and subunit 7 is the π-class isoenzyme.

[2] = tested on: rat liver cytosolic GST isoenzymes; experiment: Affinity chromatography of rat liver cytosol on GSH and GSH analog sorbents; recovery of protein and CDNB-conjugating activity in elution fractions; assay type: binding
Procedure: 0.66 g epoxy Sepharose™ 6B (Pharmacia) was swollen with 10 mL water for 15 min, then rinsed twice with 10 mL water in a 15 mL sintered glass funnel. A solution of 100-500 mg of the crude tripeptide in 5 mL ethanol and 10 mL water was adjusted to pH 11-12 with 6 N NaOH in a 20 mL scintillation vial with a polycone cap. The rinsed resin was added, and gently agitated overnight in a 37° water bath. The pH was checked the next day and brought back to pH 11-12 with 6 N NaOH if needed. After another day of agitation, the resin was filtered (the peptide-containing liquid was acidified with conc HCl, evaporated and saved) and rinsed three times with 10 mL water. The unfunctionalized epoxy groups were capped by soaking the resin in 10 mL of water which contained about 0.1 mL ethanolamine for 1 hr. The resin was then rinsed three times with 10 mL water, and a sample was removed for analysis. The remainder was rinsed with 10 mL of 0.1 M NaOAc, 0.5 M NaCl pH 4.0 buffer, followed by 10 mL of 0.1 M tris chloride, 0.5 M NaCl pH 8.0 buffer. The resin was stored at 4°C in this pH 8 buffer.
The recoveries of protein and GST (CDNB-conjugating) activity in the elution fractions after affinity purification of rat liver cytosolic GST isoenzymes on various compounds of the invention are shown in Table 3.

[3] = tested on: glyoxalase I; experiment: SDS/PAGE detection of glyoxalase I-like protein in sorbent eluates; assay type: binding, rat; conditions: EDTA in buffers
From the text: A protein with a molecular migration similar to that of another GSH-dependent enzyme, glyoxalase I, was also present in the eluates from γE-C(Bz)-A and γE-C(Bz)-βA, but was not detected in eluates from the other sorbents. […] Glyoxalase I is known to be a metal-dependent enzyme, and the presence of EDTA in the buffers may have interfered with binding activity.

Protein recovery ([2]; Table 4, rat cytosolic GST isoenzymes): 1.0%
protein recovery seen with HxGSH ([2]; relative to HxGSH sorbent): 33%
CDNB-conjugating activities ([2]; relative to HxGSH sorbent, after correcting for the inhibitory properties of the eluting ligand): 52%
protein with a molecular migration similar to glyoxalase I in eluate [3]: present
Structure (SMILES): N[C@@H](CCC(=O)N[C@@H](CSCc1ccccc1)C(=O)NCCC(=O)O)C(=O)O [γE-C(Bz)-βA, γ-glutamyl S-benzyl cysteinyl β-alanine]
SDS/PAGE band pattern of eluate ([1]; rat liver cytosol, silver staining): highly enriched band for presumptive µ-class isoenzymes
isoenzymes bound ([1]; reverse-phase HPLC of eluates): selectively bound the µ-class isoenzymes 3 and 4
